Patent US20230031406A1, “COMPOUNDS AND COMPOSITIONS FOR TREATING CONDITIONS ASSOCIATED WITH NLRP ACTIVITY” (Novartis AG, priority 2018, published 2023)
Like-named read-outs stand apart in the source and are kept apart here.

Tested on: PMA-differentiated THP-1 cells
Test: IL-1β production in PMA-differentiated THP-1 cells stimulated with gramicidin (hTHP-1 assay containing 2% fetal bovine serum; Procedures 1 and 2)
Type: cell-based, human
Conditions: 2% fetal bovine serum
How it was run: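 Secreted IL-1β, read by HTRF, after gramicidin challenge (5 μM, 2 h) of THP-1 cells differentiated with PMA (20 ng/ml, 16-18 h) and plated at 50,000 cells/well in 2% FBS medium. Compounds, 0.0017-100 μM final with 0.37% DMSO, were added 1 h before stimulation.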

[1] = Homo sapiens, THP-1, Table B2, class symbols, read-out: hTHP-1 IC50
[2] = Table B2, class symbols, read-out: hTHP-1 IC50
[3] = Homo sapiens, THP-1, Table B3, hTHP-1 assay, class symbols, read-out: IC50

Cc1c(C(F)(F)F)nc2c(c1NC(=O)N=[S@](N)(=O)c1cnc(C(C)(C)O)s1)CC[C@H]2C [Compound 608b]
IC50 [1]: 5 to 30 µM

C[C@@H]1CCc2c1nc1c(c2NC(=O)N=S(N)(=O)c2sc(CN(C)C)cc2F)CCC1 (single isomer, unassigned) [Compound 636a, (S) or (R)-5-((Dimethylamino)methyl)-3-fluoro-N′-(((R)-3-methyl-1,2,3,5,6,7-hexahydrodicyclopenta [b,e]pyridin-8-yl)carbamoyl) thiophene-2-sulfonimidamide]
IC50 [2]: 5 to 30 µM

CC1(C)CCc2c1nc1c(c2NC(=O)N=S(N)(=O)c2cnn3c2OC[C@H](O)C3)CCC1 (stereo partly drawn) [Example 603, (6R)-N′-((3,3-dimethyl-1,2,3,5,6,7-hexahydrodicyclopenta[b,e]pyridin-8-yl)carbamoyl)-6-hydroxy-6,7-dihydro-5H-pyrazolo[5,1-b][1,3]oxazine-3-sulfonimidamide]
IC50 [3]: 1 to 5 µM

CC(C)(O)c1ncc(S(N)(=O)=NC(=O)Nc2c3c(nc4c2CCC4=O)CCC3)s1 (stereo not drawn) [compound 593, 2-(2-Hydroxypropan-2-yl)-N′-((3-oxo-1,2,3,5,6,7-hexahydrodicyclopenta[b,e]pyridin-8-yl)carbamoyl)thiazole-5-sulfonimidamide]
IC50 (Homo sapiens, THP-1, Table B3, hTHP-1 assay, numeric values, read-out: IC50): > 30 µM

CC(C)(O)c1ncc(S(N)(=O)=NC(=O)Nc2c3c(nc4c2CCC4)CCC3)s1 (single isomer, unassigned) [Compound 128a, (R) or (S)-N′-((1,2,3,5,6,7-hexahydrodicyclo-penta[b,e]pyridin-8-yl)carbamoyl)-2-(2-hydroxypropan-2-yl)thiazole-5-sulfonimidamide]
IC50 (Table B1, class symbols, read-out: Average IC50 of compounds in hTHP-1 assay: hTHP-1 IC50): 0.2 to 1 µM

Cc1c(C2(F)CC2)nc2c(c1NC(=O)N=S(N)(=O)c1cc(C(C)(C)O)cs1)CCC2 (stereo not drawn) [Example 611, N′-((2-(1-fluorocyclopropyl)-3-methyl-6,7-dihydro-5H-cyclopenta[b]pyridin-4-yl)carbamoyl)-4-(2-hydroxypropan-2-yl)thiophene-2-sulfonimidamide]
IC50 [3]: 1 to 5 µM

Cc1c(C2CCC2)nc2c(c1NC(=O)N=S(N)(=O)c1cnc(C(C)(C)O)s1)CCC2 (single isomer, unassigned) [Compound 649a, (R) or (S)-N′-((2-cyclobutyl-3-methyl-6,7-dihydro-5H-cyclopenta[b]pyridin-4-yl)carbamoyl)-2-(2-hydroxypropan-2-yl)thiazole-5-sulfonimidamide]
IC50 [1]: 5 to 30 µM

CCc1cc(F)c(S(N)(=O)=NC(=O)Nc2c3c(nc4c2CC[C@H]4C)CCC3)s1 (single isomer, unassigned) [Compound 720b, (S) or (R)-5-Ethyl-3-fluoro-N′-(((R)-3-methyl-1,2,3,5,6,7-hexahydrodicyclopenta[b, e]pyridin-8-yl)carbamoyl)thiophene-2-sulfonimidamide]
IC50 [2]: 5 to 30 µM

CC(C)(O)c1cccc(S(N)(=O)=NC(=O)Nc2c3c(nc4c2CCC4)CCC3)c1 (stereo not drawn) [Compound 625, N′-((1,2,3,5,6,7-hexahydrodicyclopenta[b,e]pyridin-8-yl)carbamoyl)-3-(2-hydroxypropan-2-yl)benzenesulfonimidamide]
IC50 [1]: 5 to 30 µM

CC(C)n1nc(S(N)(=O)=NC(=O)Nc2c3c(nc4c2CCC4(C)C)CCC3)cc1CO (single isomer, unassigned) [Compound 652a]
IC50 [1]: 0.2 to 1 µM

Cc1nc(C)c(C)c(NC(=O)N=S(N)(=O)c2cnc(C(C)(C)O)s2)c1C (single isomer, unassigned) [Compound 133a, (R) or (S)-2-(2-hydroxypropan-2-yl)-N′-((2,3,5,6-tetramethylpyridin-4-yl)carbamoyl)thiazole-5-sulfonimidamide]
IC50 (Homo sapiens, THP-1, Table B1, numeric bounds, read-out: Average IC50 of compounds in hTHP-1 assay: hTHP-1 IC50): > 30 µM

Cc1c(CC(F)(F)F)nc2c(c1NC(=O)N=S(N)(=O)c1nn(C(F)F)cc1F)CCC2 (stereo not drawn) [Example 617, 1-(Difluoromethyl)-4-fluoro-N′-((3-methyl-2-(2,2,2-trifluoroethyl)-6,7-dihydro-5H-cyclopenta[b]pyridin-4-yl)carbamoyl)-1H-pyrazole-3-sulfonimidamide]
IC50 [3]: 5 to 30 µM
